These results are taken from patent US10947366B2, “Hollow mineral tubes comprising essential oils and uses thereof” (TECHNION RESEARCH & DEVELOPMENT FOUNDATION LTD., priority 2015, dated 2021).

Like-named read-outs stand apart in the source and are kept apart here.

The nature of data set [1]: Thermal gravimetric analysis (TGA) of EOs and HNTs/EO hybrids, thermal stability. It counts as physicochemical. To be noted: 20° C./min, nitrogen. The procedure: (§1) Hybrids were characterized by thermal gravimetric analysis (TGA) using TGA-Q5000 system (TA instruments, USA) at a heating rate of 20° C./min under nitrogen atmosphere, starting at room temperature up to 600° C.
Thermal gravimetric analysis (TGA) is performed using TGA-Q5000 system (TA Instruments, USA). Samples are heated under nitrogen atmosphere from room temperature to 600° C. at a heating rate of 20° C. min^−1. The results are analyzed using Universal […] version 4.5A build 4.5.0.5 software.

The nature of data set [2]: EO content in films after melt compounding and processing, determined by TGA. Format: physicochemical. To be noted: pure EO in LDPE film without HNTs, initial 4 %. The procedure:
as §1
Table 4 below summarizes the carvacrol and HNTs content in different films (following melt compounding and processing) determined by TGA (initial carvacrol content, pre-processing, was 4 wt % and initial HNTs content was 2 wt %).
The resulting films were studied by thermal gravimetric analysis (TGA) in order to examine the effect of the HNTs carriers on the residual carvacrol content following the harsh high-temperature melt-compounding and processing of PA. Table 5 summarizes the results of these experiments showing carvacrol content in different carvacrol-containing films, determined by TGA.
The EOs content and distribution within the LDPE matrix are important parameters, crucial in determining the mechanical and antimicrobial performance of the nanocomposite systems (R. Shemesh et al., 2015). Thus, the total volatile content within the LDPE-based films was investigated using TGA, and the results are summarized in Table 14 showing carvacrol and thymol concentrations in different LDPE-based films as determined by TGA and FTIR spectroscopy.

Data set [3] has as its system E. coli (ATCC 8739). Kind of data set: Chequerboard antimicrobial susceptibility to pure carvacrol, thymol and their combinations. It counts as cell-based. To be noted: Escherichia coli, ATCC8739. The method, then: Bacterial susceptibility to pure carvacrol, thymol and their mixtures was characterized by the standard chequerboard procedure for antimicrobial susceptibility for combination of antimicrobials (Franzot & Casadevall, 1997; Pei, Zhou, Ji, & Xu, 2009).
Accordingly, in exemplary procedures, stock aqueous emulsions of thymol and carvacrol (at a concentration of 6400 mg L^−1 in MillyQ water, […]) are prepared by ultrasonication (Vibra cell VCX 750, Sonics & Materials Inc., USA) for 3 min at a constant amplitude of 40%, on ice bath using small amounts of Tween-80. […] The plate is sealed with SealPlate® (Excel Scientific Inc., Victorville, CV, US) incubated at 37° C. for 4 h under gentle shacking in a microplate reader (Varioskan Flash, Thermo Scientific, USA). Absorbance measurements are recorded at 600 nm every 3 min. […]
The MIC of carvacrol and thymol and their combination against E. coli (ATCC 8739) were determined using the standard chequerboard procedure for antimicrobial susceptibility for combination of antimicrobials (Franzot & Casadevall, 1997; Pei et al., 2009).
FIG. 13A presents characteristic E. coli growth curves in media containing a constant thymol concentration (75 mg L^−1) and varying carvacrol concentrations (0 to 200 mg L^−1). […] While at a lower concentration (100 mg L^−1), a profound lag time of ˜200 min in bacterial growth is recorded. […]

Data set [4] concerns E. coli. Description: Agar diffusion assay (Kirby-Bauer disk diffusion) of LDPE-based films. Format: cell-based. The following applies: dose additivity model. The method, then:
Fresh LDPE/(HNTs/CV-TY), LDPE/(HNTs/CV) and LDPE/TY films (12 mm in diameter and 150 μm thick) were conditioned at 60° C. for different time intervals to accelerate the release of the EOs from the films. The films were sampled after different durations, and the content of the respective EOs were determined by Fourier-transform infrared spectroscopy in transmission mode. Subsequently, the discs were placed onto the surface of a Luria broth (LB) agar plate seeded with 10^8 CFU ml^−1 of E. coli culture (0.1 mL). […] All tests were performed in triplicates, and at least 15 different specimens are studied for each film type of each. Neat LDPE films were used as a negative control.
Interactions between CV and TY were assessed based on the results obtained by the agar diffusion assay studies. Two common models of synergistic activity are applied:
(1) effect additivity (Axelrad, Howard, & McLean, 2002) and (2) dose additivity (Berenbaum, 1978). […] The second model is based on building curves that illustrate various combinations of two antimicrobials that produce the same effect. Antimicrobial doses of the same efficiency are connected by the additivity line that predicts a zero interaction. Deviations from this prediction can be interpreted as antagonism or synergy. […]
In general terms: A growth-free zone around the sample is the usual read-out of agar diffusion tests.

For data set [5] the following is noted: at 20° C.-25° C.; cited from earlier work.

Broadly, the MIC is the least concentration at which growth counts as inhibited. As for `Cc1ccc(C(C)C)cc1O` [carvacrol, Carvacrol], the “temperature at which weight loss (evaporation) of the EO is completed” value in data set [1] was “about 165 °C”. The “reduction of EO concentration during high-temperature processing” value in data set [2] was 55%. Further, the MIC in data set [3] is 200 µg/mL. Further, the “in-film EO concentration giving 19 mm inhibition zone” value in data set [4] turned out to be 1.5%. Moreover, the vapor pressure in data set [5] is 0.023 mmHg.

Take `CC(C)=CCCC(C)=CC=O` [citral, Citral]: the vapor pressure in data set [5] is 0.22 mmHg.

In the case of `C=CC(C)(O)CCC=C(C)C` (centres unmarked) [linalool, Linalool], in data set [5], the vapor pressure is 0.17 mmHg.

On to `Cc1ccc(C(C)C)c(O)c1` [thymol, Thymol], for which the “reduction of EO concentration during high-temperature processing” value in data set [2] turned out to be 35%. For the same compound, in data set [3] (LB medium, 37° C., 4 h, inhibition = lag time above 200 min, read-out: MIC), the MIC worked out at 300 µg/mL. Moreover, the “in-film EO concentration giving 19 mm inhibition zone” value in data set [4] is listed as 1.4%. In addition, the vapor pressure in data set [5] is given as 0.002 mmHg.
